# From PMC4197335, “Cancer-Selective Targeting of the NF-κB Survival Pathway with GADD45β/MKK7 Inhibitors” (Cancer Cell, 2014)
# Where two headings read alike, the source gives them in different places. Where a SMILES comes first, the peptide text is derived from it. [ ]: non-standard residue; d: D form. The star is where a group is joined. Benzoyl(3-OH,4-OMe) = COc1ccc(C(=O)*)cc1O; ClZ = O=C(OCc1ccccc1Cl)*; Cbz = O=C(OCc1ccccc1)*
# Assays:
# [1] = test system: U266 MM cells; conditions: read-out: IC50 (U266 cells); Table S3; day 6; [3H]thymidine incorporation or trypan blue exclusion
# [2] = molecular target: T1, GADD45β/MKK7 complex (Homo sapiens, UniProt O14733); experiment: ELISA GADD45β/MKK7 competition assay; type: binding; conditions: for inhibition at 0.042 µM / % inhibition (ELISA): peptide at 42 nM
# T1 construct: Full-length human (h)MKK7 was expressed as a protein fused to an N-terminal GST tag (GST-MKK7); made in house
# T1 sequence (O14733 1-419): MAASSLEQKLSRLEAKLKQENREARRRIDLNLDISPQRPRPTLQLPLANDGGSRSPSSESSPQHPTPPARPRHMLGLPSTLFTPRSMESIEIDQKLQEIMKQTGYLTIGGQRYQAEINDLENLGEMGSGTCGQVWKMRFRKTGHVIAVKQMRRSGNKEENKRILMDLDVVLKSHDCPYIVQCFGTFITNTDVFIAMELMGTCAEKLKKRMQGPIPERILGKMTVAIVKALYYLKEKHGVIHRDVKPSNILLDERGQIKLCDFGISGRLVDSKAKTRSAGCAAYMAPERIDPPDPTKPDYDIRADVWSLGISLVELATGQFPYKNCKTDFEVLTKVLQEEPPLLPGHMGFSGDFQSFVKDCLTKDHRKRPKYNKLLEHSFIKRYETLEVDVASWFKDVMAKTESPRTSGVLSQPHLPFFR
# Excerpt: Additional details are provided in Supplemental Experimental Procedures.
# (1:1,000) and the HRP chromogenic substrate, o -phenylenediamine (OPD). GST -coated wells wer e […]
# The ELISA competition screen used f or the isolation of antagonists of the GADD45β /MKK7 […]
# The library deconvolution strategy used for this screen was described previously […]
# General information about this type of screens can be found elsewhere […]
# Values were expressed as the percentage of inhibition of His6-hGADD45β binding to GST-hMKK7 relative to the binding measured in the absence of […]
# Dose-response, ELISA GADD45β /MKK7 competition assays were carried out under similar […]
# As part of the SAR analysis and lead optimization process, where appropriate, competitors were tested at a concentration up to 100 nM. In order to determine their stability in biolog ical f luids , peptides were incubated at the concentration of 10 µM in […]
# calculated using at least 7 concentrations of peptide and def ined as the mean concentration of peptide […]
# the absence of competitor. W here indicated, values were expressed as the percentage of inhibition of His 6 -hGADD45β binding to GST-hMKK7 relative to the binding measured in the absence of competitor.
# GST was used as a control in all the experiments. […]
# tetrapeptide used as negative control in some of the ELISA and cellular assays was as f ollows: z -DNC, z-T yr -Asp-His-Gln-NH 2 . […]
# [3] = pharmacokinetics after single intravenous injection
# Protocol: The pharmacokinetic analyses of DTP3 and z-DTP2 were outsourced. Additional details are provided in Supplemental Experimental Procedures. […]
# Pharmacokinetic Anal yses
# In vitro and in vivo pharmacok inetic analyses were outsourced to Cypr ot ex (http://www.c yprotex.com/home/) (Figure 7A, Tables S6). In vitro pharmacok inetic assays were perf ormed according to established, in- house protocols and included: plasma stability (human), thermodynamic solubility (PBS pH 7.4, at 37 °C f or 14 days), microsomal stability (human), plasma protein binding (PPB; mouse and human), and distribution coeff icient (LogD). In vivo pharmacok inetic […]
# analyses were also perf ormed at Cyprotex according to established, in- house protocols. Brief ly, the peptides were dissolved in PBS and administered by single intravenous injection t o CD1 male mice at the dose of 10 mg/kg (25 -30 g of total body weight; n=3 mice per time point per compound) . Blood samples were collected in heparinized tubes at up to 7 tim e points after this injection (i.e. 0.08, 0.25, 0.5, 1, 2, 4 and 8 hr), and the plasma concentrations of the test peptide were determined at each time point by LC-MS/ MS, using a f ive- point standard curve covering a peptide concentration range from 3 to 3,000 ng/mL. Standard curves were prepared using blank plasma matrices and treated in the same manner as the test samples. The main pharmacok inetic parameters determined in these analyses were: terminal half-lif e (t 1/2 ), plasma clearance (CL), volume of distribution (V d ), and area under the plasma concentration versus time curve (AUC) (Figure 7A, Table S6). Values were calculated from the data of the peptide plasma concentration versus time curves using a non-compartmental model analysis, as described elsewhere (Groulx, 2006; Landaw and Di Stef ano 3rd, 1982) . […]
# [4] = read-out: % inhibition of (ELISA)
# [5] = Table S3, peptide at 10 nM, read-out: % inhibition (ELISA)
# [6] = Table S3, read-out: IC50 (ELISA)
# [7] = Table S2, read-out: % inhibition (ELISA)
# [8] = Table S4, read-out: IC50s (ELISA)
molecule,measurement,setting,value
N=C(N)NCCC[C@@H](NC(=O)[C@@H](CCC(=O)O)NC(=O)[C@@H](Cc1ccc(O)cc1)NC(=O)c1ccccc1)C(=O)N[C@H](Cc1ccccc1)C(N)=O [Benzoyl-YERF-NH2],IC50,[1],> 10000 nM
same,IC50,[2],> 10 nM
same,inhibition at 0.01 µM,[2]; read-out: % inhibition (ELISA),24%
NC(=O)[C@@H](Cc1ccccc1)NC(=O)[C@@H](Cc1c[nH]cn1)NC(=O)[C@@H](CC(=O)O)NC(=O)[C@@H](Cc1ccc(O)cc1)NC(=O)c1ccccc1 [Benzoyl-YDHF-NH2],IC50,[1],> 10000 nM
same,IC50,[2],> 10 nM
same,inhibition at 0.01 µM,[2]; read-out: % inhibition (ELISA),0%
same,inhibition at 0.01 µM,[2]; [4],1%
CCCCCCCCCCCCCC(=O)N[C@H](Cc1ccc(O)cc1)C(=O)N[C@H](CC(=O)O)C(=O)N[C@H](Cc1c[nH]cn1)C(=O)N[C@H](Cc1ccccc1)C(N)=O [Myr-YDHF-NH2],IC50,[1],> 10000 nM
same,inhibition at 0.01 µM,[2]; [5],26%
same,IC50,[2]; [6],> 10 nM
NC(=O)CC[C@@H](NC(=O)[C@@H](Cc1c[nH]cn1)NC(=O)[C@@H](CC(=O)O)NC(=O)[C@@H](Cc1ccc(O)cc1)NC(=O)c1ccccc1)C(N)=O [Benzoyl-YDHQ-NH2],IC50,[1],> 10000 nM
same,IC50,[2],> 10 nM
same,inhibition at 0.01 µM,[2]; read-out: % inhibition (ELISA),1%
same,inhibition at 0.01 µM,[2]; [4],0%
CCCCCCCCCCCCCC(=O)N[C@H](Cc1ccc(O)cc1)C(=O)N[C@H](CC(=O)O)C(=O)N[C@H](Cc1c[nH]cn1)C(=O)N[C@H](CCC(N)=O)C(N)=O [Myr-YDHQ-NH2],IC50,[1],> 10000 nM
same,inhibition at 0.01 µM,[2]; [5],28%
same,IC50,[2]; [6],> 10 nM
CC(=O)N[C@@H](Cc1c[nH]c2ccccc12)C(=O)N[C@@H](CC(=O)O)C(=O)N[C@@H](CCCCN)C(=O)N[C@@H](Cc1ccccc1)C(N)=O [Ac-WDKF-NH2] (Ac-WDKF-NH2),inhibition at 0.042 µM,[2]; [7],25%
CCCCCCCCCCCCCC(=O)N[C@H](Cc1ccc(O)cc1)C(=O)N[C@H](CCC(=O)O)C(=O)N[C@H](CCCNC(=N)N)C(=O)N[C@H](Cc1ccccc1)C(N)=O [Myr-YERF-NH2],IC50,[1],> 10000 nM
same,inhibition at 0.01 µM,[2]; [5],37%
same,IC50,[2]; [6],> 10 nM
COC(=O)C[C@@H](NC(=O)[C@@H](Cc1ccc(O)cc1)NC(=O)OCc1ccccc1)C(=O)N[C@H](Cc1c[nH]cn1)C(=O)N[C@H](CCC(N)=O)C(N)=O [z-YD(O-methyl)HQ-NH2] (Cbz-[dY][dD](OMe)[dH][dQ]-NH2),inhibition at 0.01 µM,[2]; [5],3%
same,IC50,[2]; [6],> 10 nM
"N=C(N)NCCC[C@@H](NC(=O)[C@@H](CCC(=O)O)NC(=O)[C@@H](Cc1ccc(O)cc1)NC(=O)OCc1ccccc1)C(=O)N[C@H](Cc1ccccc1)C(N)=O [z-DTP2, z-YERF-NH2] (Cbz-[dY][dE][dR][dF]-NH2)",predicted dose required to achieve the therapeutic plasma concentration of 1 μM at the steady state,[3]; k0 = k1 x Vd x Cp,3.61 mg/kg/h
same,AUC,"[3]; mouse, in vivo, iv, 10 mg/kg",2060 ± 250 ng·h/mL
same,Vd,"[3]; mouse, in vivo, iv, 10 mg/kg",14.6 ± 2.23 L/kg
same,clearance,"[3]; mouse, in vivo, iv, 10 mg/kg",78.1 ± 11.7 mL/min/kg
same,half-life,"[3]; mouse, in vivo, iv, 10 mg/kg",2.09 ± 0.07 h
same,inhibition at 0.01 µM,[2]; [5],95%
"COc1ccc(C(=O)N[C@H](Cc2ccc(O)cc2)C(=O)N[C@H](CCC(=O)O)C(=O)N[C@H](CCCNC(=N)N)C(=O)N[C@H](Cc2ccccc2)C(N)=O)cc1O ({Benzoyl(3-OH,4-OMe)}-[dY][dE][dR][dF]-NH2)",inhibition at 0.01 µM,[2]; read-out: % inhibition (ELISA),86%
N=C(N)NCCC[C@@H](NC(=O)[C@@H](CCC(=O)O)NC(=O)[C@@H](Cc1ccc(O)cc1)NC(=O)OCc1ccccc1Cl)C(=O)N[C@H](Cc1ccccc1)C(N)=O [2CI-z-YERF-NH2] (ClZ-[dY][dE][dR][dF]-NH2),inhibition at 0.01 µM,[2]; [5],38%
same,IC50,[2]; [6],> 10 nM
"CC(=O)N[C@@H](Cc1ccc(O)cc1)C(=O)N[C@@H](CC(=O)O)C(=O)N[C@@H](Cc1c[nH]cn1)C(=O)N[C@@H](Cc1ccccc1)C(N)=O [Ac-LTP1, Ac-YDHF-NH2]",IC50,"[2]; Figure 3A, before preincubation with human serum, read-out: IC50",0.4 nM
same,IC50,"[2]; Figure 3B, after a 48 hr preincubation with human serum, read-out: IC50",> 10 nM
same,inhibition at 0.042 µM,[2]; [7],94%
Ac-YEHF-NH2,% inhibition (ELISA),[2]; Table S2,52%
CC(=O)N[C@@H](Cc1c[nH]c2ccccc12)C(=O)N[C@@H](CCC(=O)O)C(=O)N[C@@H](CCCNC(=N)N)C(=O)N[C@@H](Cc1ccccc1)C(N)=O [Ac-WERF-NH2] (Ac-WERF-NH2),inhibition at 0.042 µM,[2]; [7],28%
same,IC50,[2]; [8],> 42 nM
CC(=O)NC(C)C(=O)NC(CCC(=O)O)C(=O)NC(CCCNC(=N)N)C(=O)NC(Cc1ccccc1)C(N)=O (stereo not drawn) [Ac-AERF-NH2] (Ac-AERF-NH2; configuration not given here),inhibition at 0.042 µM,"[2]; Table S4, values marked (#), read-out: % inhibition of (ELISA)",7%
NC(=O)[C@@H](Cc1ccccc1)NC(=O)[C@@H](Cc1c[nH]cn1)NC(=O)[C@@H](CC(=O)O)NC(=O)[C@@H](Cc1ccc(O)cc1)NC(=O)OCc1ccccc1Cl [2CI-z-YDHF-NH2] (ClZ-[dY][dD][dH][dF]-NH2),inhibition at 0.01 µM,[2]; [5],38%
same,IC50,[2]; [6],> 10 nM
"COc1ccc(C(=O)N[C@H](Cc2ccc(O)cc2)C(=O)N[C@H](CC(=O)O)C(=O)N[C@H](Cc2c[nH]cn2)C(=O)N[C@H](Cc2ccccc2)C(N)=O)cc1O ({Benzoyl(3-OH,4-OMe)}-[dY][dD][dH][dF]-NH2)",inhibition at 0.01 µM,[2]; read-out: % inhibition (ELISA),81%
COC(=O)C[C@@H](NC(=O)[C@@H](Cc1ccc(O)cc1)NC(=O)OCc1ccccc1)C(=O)N[C@H](Cc1c[nH]cn1)C(=O)N[C@H](Cc1ccccc1)C(N)=O [z-YD(O-methyl)HF-NH2] (Cbz-[dY][dD](OMe)[dH][dF]-NH2),inhibition at 0.01 µM,[2]; [5],84%
same,IC50,[2]; [6],> 10 nM
NC(=O)CC[C@@H](NC(=O)[C@@H](Cc1c[nH]cn1)NC(=O)[C@@H](CC(=O)O)NC(=O)[C@@H](Cc1ccc(O)cc1)NC(=O)OCc1ccccc1Cl)C(N)=O [2CI-z-YDHQ-NH2] (ClZ-[dY][dD][dH][dQ]-NH2),inhibition at 0.01 µM,[2]; [5],40%
same,IC50,[2]; [6],> 10 nM
Ac-YDKF-NH2,% inhibition (ELISA),[2]; Table S2,34%
CC(=O)N[C@@H](Cc1c[nH]c2ccccc12)C(=O)N[C@@H](CC(=O)O)C(=O)N[C@@H](CCCCN)C(=O)N[C@@H](Cc1c[nH]c2ccccc12)C(N)=O [Ac-WDKW-NH2] (Ac-WDKW-NH2),inhibition at 0.042 µM,[2]; [7],69%
same,IC50,[2]; [8],< 42 nM
CC(=O)N[C@@H](Cc1c[nH]c2ccccc12)C(=O)N[C@@H](CCC(=O)O)C(=O)N[C@@H](CCCCN)C(=O)N[C@@H](Cc1ccccc1)C(N)=O [Ac-WEKF-NH2] (Ac-WEKF-NH2),inhibition at 0.042 µM,[2]; [7],65%
same,IC50,[2]; [8],< 42 nM
CC(=O)N[C@H](Cc1ccc(O)cc1)C(=O)N[C@H](CC(=O)O)C(=O)N[C@H](Cc1c[nH]cn1)C(=O)N[C@H](CCC(N)=O)C(=O)N[C@H](CCCCNC(=O)OCc1ccccc1)C(N)=O [Ac-YDHQK(εZ)-NH2] (Ac-[dY][dD][dH][dQ][dK](Cbz)-NH2),inhibition at 0.01 µM,[2]; [5],2%
same,IC50,[2]; [6],> 10 nM
Ac-YDHW-NH2,% inhibition (ELISA),[2]; Table S2,57%
